Results from patent US7186756B2, “Steroid derivatives and use thereof as medicaments” (Inovat, priority 2003, dated 2007).

Tested on: bone cells (line UMR 106 or G 292)
Test: fixation of calcium in the extra cellular matrix of cultured bone cells (atomic spectrophotometry)
Format: cell-based
Conditions: for amount of fixed calcium in the extra cellular matrix of the osteoblasts: cells treated with 10 µg of calcium inhibitor, same conditions
Procedure: In the same conditions the cells are treated with 10 µg Verapamil or any other inhibitor of the calcium such as Cinchonine or Diltiazem.

Compound	amount of fixed calcium in the extra cellular matrix of the osteoblasts	fixed calcium (10 ng of Maltadiolone, in comparison with the untreated control cells, line UMR 106 or G 292)	fixative activity on the calcium (cells treated with both 1 μg IL-1 and 10 μg Maltadiolone)	concentration from which recovery of the fixation of calcium on the extra cellular matrix may be detected (same conditions as previously (IL-1 treated cells)) [ng/mL]
COc1ccc(CCN(C)CCCC(C#N)(c2ccc(OC)c(OC)c2)C(C)C)cc1OC (stereo not drawn) [Verapamil]	equivalent to that of the cells treated with interleukin			
2-oxo 3-hydroxy 25-ethylidene A-nor cholest-3-ene [Maltadiolone]		increase in the fixed calcium	restore a fixative activity on the calcium, equivalent to that of cells untreated with a calcium inhibitor	≥ 10
C=C[C@H]1C[N@@]2CC[C@H]1C[C@@H]2[C@@H](O)c1ccnc2ccccc12 [Cinchonine]	equivalent to that of the cells treated with interleukin			
COc1ccc([C@@H]2Sc3ccccc3N(CCN(C)C)C(=O)[C@@H]2OC(C)=O)cc1 [Diltiazem]	equivalent to that of the cells treated with interleukin			
